Results as given in publication PMC8389037, “Design, Synthesis and Antifungal Activity of Stapled Aurein1.2 Peptides” (Antibiotics, 2021).
In brackets after ≈: the same amount, converted by molar mass. Where a SMILES comes first, the peptide text is derived from it. Bridges are numbered along the chain shown (N, C = ends). [ ]: non-standard residue; d: D form. S5 = C=CCCC[C@](C)(N)C(=O)O

Legend:
[1] = system: C. albicans 901; assay: microbe, parasite or virus in culture
Procedure: (§1) The in vitro antifungal activities of the target peptides were evaluated according to protocols from the CLSI. The broth microdilution method was used to determine the minimum inhibitory concentration (MIC) of the target peptides in 96-well plates. Fluconazole was used as a reference drug.
(§2) Clinical isolates of C. albicans SC5314, 901, 904, C. tropicalis ATCC20026 and clinical isolate 895, C. glabrata ATCC1182 and clinical isolate 896, C. krusei ATCC2340, and C. parapsilosis ATCC22010 are from the collection library in the Drug Discovery and Development Center, Naval Medical University, Shanghai, China. C. auris clinical isolates are provided by Linqi Wang (Institute of Microbiology, Chinese Academy of Sciences) and Changbin Chen (Institut Pasteur of Shanghai, Chinese Academy of Sciences). All strains were cultured in YPD (1% yeast extract, 2% peptone, and 2% glucose) liquid medium overnight at 30 °C with shaking at 220 rpm.
(§3) The MICs of chemicals against all strains were determined by the micro broth dilution method according to the Clinical and Laboratory Standards Institute (Wayne PA, Reference Method for Broth Dilution Antifungal Susceptibility Testing of yeasts, approved Standard M27-A3, 3 rd ed; Clinical and Laboratory Standards Institute (CLSI): USA, 2008). The initial concentration of fungal suspension in RPMI 1640 medium was 3–5 × 10^3 colonies forming unit (CFU)/mL, which was added to 96-well plates. Peptides were prepared in dimethyl sulfoxide (DMSO) with an initial stored concentration of 6.4 mg/mL. Serial dilutions were made based on the CLSI M27 guide to obtaining the final concentrations ranging from 0.125 to 64 μg/mL for fluconazole and 0.25 to 128 μg/mL for peptides […]. The plates were incubated at 30 °C for 48 h. Optical density was measured at 630 nm, and background optical densities were subtracted from that of each well. The definition of MIC is the lowest concentration at which 80% of tested strains cannot grow.

[2] = system: C. albicans 904; assay: microbe, parasite or virus in culture
Procedure: as §1, §2, §3

[3] = system: C. albicans SC5314; assay: microbe, parasite or virus in culture
Procedure: as §1, §2, §3

[4] = system: C. auris 918; assay: microbe, parasite or virus in culture
Procedure: as §1, §2, §3

[5] = system: C. auris 919; assay: microbe, parasite or virus in culture
Procedure: as §1, §2, §3

[6] = system: C. glabrata 896; assay: microbe, parasite or virus in culture
Procedure: as §1, §2, §3

[7] = system: C. glabrata ATCC 1182; assay: microbe, parasite or virus in culture
Procedure: as §1, §2, §3

[8] = system: C. krusei ATCC 2340; assay: microbe, parasite or virus in culture
Procedure: as §1, §2, §3

[9] = system: C. parapsilosis ATCC 22010; assay: microbe, parasite or virus in culture
Procedure: as §1, §2, §3

[10] = system: C. tropicalis 895; assay: microbe, parasite or virus in culture
Procedure: as §1, §2, §3

[11] = system: C. tropicalis ATCC 20026; assay: microbe, parasite or virus in culture
Procedure: as §1, §2, §3

[12] = Helicity by circular dichroism; type: physicochemical; details: CD, 50 μM peptide in phosphate buffer/trifluoroethanol (7:3), 20 °C, calculated on [θ]222
Procedure: We use circular dichroism (CD) spectroscopy to probe the structural changes of Aurein1.2. According to the formula for calculating the helix reported in the previous relevant literature, we calculated the helicities of Aurein1.2 and the stapled peptides.
Figure 3 CD spectra of Aurein1.2 and its analogues. The peptides were dissolved in a solution of phosphate buffer and trifluoroethanol (7:3) and reached a concentration of 50 μM. The helicities of these peptides were calculated on the [θ]222. TEXT PRINTED IN THE PICTURE: Aurein1.2: helicity: 56.6% | Sau-1: helicity: 60.2% | Sau-2: helicity: 52.5% | Sau-3: helicity: 72.3% | Sau-4: helicity: 73.5% | Sau-5: helicity: 61.0% | Sau-6: helicity: 49.9% | Sau-7: helicity: 65.0% | Sau-8: helicity: 83.1% | Sau-9: helicity: 67.8%
The linear peptide and the stapled Aurein1.2 peptides were dissolved to form a sample with a concentration of 50 μM. The solvent consists of phosphate-buffered solution and trifluoroethanol (7:3). We used a […] quartz tube to obtain CD spectra on a Jasco-715 spectrophotometer at 20 °C. The measurement parameters were set up as follows: wavelength, 190–255 nm; speed, 20 nm min^−1; step resolution, 1.0 nm. And we accumulated the data twice. All spectral data were subtracted from the background. […] The helicity of each peptide was calculated according to the equation in the literature.

[13] = system: chymotrypsin; assay: Chymotrypsin digestion assay (proteolytic stability); details: chymotrypsin 10 ng/µL in PBS 50 mM, 2 mM CaCl2, pH 7.4, room temperature; 130 µL of 1 mM DMSO peptide stock + 910 µL enzyme; sampled 0, 0.5, 1.5, 2, 4.5 h; HPLC at 214 nm
Procedure: Their susceptibility toward chymotrypsin degradation was tested in pH 7.4 PBS buffer at room temperature, containing 2 mM of CaCl2, and the percentages of remaining peptides were determined by HPLC. […] The corresponding HPLC charts for the determination of peptide residues are in the Supplementary Material.
Figure 4 Proteolytic stability of Aurein1.2, Sau-1, Sau-2, Sau-5, and Sau-9. They were dissolved in chymotrypsin solution (10 ng/μL, 50 mM, containing 2 mM of CaCl2, pH = 7.4). The percentages of the remaining peptides were monitored by HPLC.
Aurein1.2, Sau-1, Sau-2, Sau-5, and Sau-9, were dissolved in dimethyl sulfoxide to prepare a reserve solution with a concentration of 1 mM. Chymotrypsin was dissolved in PBS buffer (50 mM, containing 2 mM of CaCl2, pH = 7.4) to obtain a final concentration of 10 ng/µL. Then the 130 µL peptide solutions were incubated with 910 µL of chymotrypsin solution at room temperature. Then 130 µL of digestion mixture was taken at 0, 0.5, 1.5, 2 or 4.5 h, and then quenched with 50 µL of hydrochloric acid (1 mM). High-performance liquid chromatography (HPLC) was used to detect the residues of linear peptides and stapled Aurein1.2 peptides at 214 nm at a different time.

In the case of “Ac-GLFDIIKKIAESF-NH2 [reference compound]”, the “Minimum inhibitory concentration (MIC)” value ([1]; C. albicans 901, fluconazole-resistant clinical isolate, RPMI 1640, 30 °C, 48 h, OD 630 nm, 80% inhibition) was greater than 128 µg/mL, the “Minimum inhibitory concentration (MIC)” value ([2]; C. albicans 904, RPMI 1640, 30 °C, 48 h, OD 630 nm, 80% inhibition) was greater than 128 µg/mL and the “Minimum inhibitory concentration (MIC)” value ([3]; C. albicans SC5314, RPMI 1640, 3–5 × 10^3 CFU/mL, 30 °C, 48 h, OD 630 nm, 80% inhibition) was greater than 64 µg/mL. For the same compound, the “Minimum inhibitory concentration (MIC)” value ([4]; C. auris clinical isolate 918, RPMI 1640, 30 °C, 48 h, OD 630 nm, 80% inhibition) was greater than 128 µg/mL, the “Minimum inhibitory concentration (MIC)” value ([5]; C. auris clinical isolate 919, RPMI 1640, 30 °C, 48 h, OD 630 nm, 80% inhibition) was greater than 128 µg/mL and the “Minimum inhibitory concentration (MIC)” value ([6]; C. glabrata clinical isolate 896, RPMI 1640, 30 °C, 48 h, OD 630 nm, 80% inhibition) was greater than 128 µg/mL. For the same compound, the “Minimum inhibitory concentration (MIC)” value ([7]; C. glabrata ATCC 1182, RPMI 1640, 30 °C, 48 h, OD 630 nm, 80% inhibition) was greater than 128 µg/mL, the “Minimum inhibitory concentration (MIC)” value ([8]; C. krusei ATCC 2340, RPMI 1640, 30 °C, 48 h, OD 630 nm, 80% inhibition) was greater than 128 µg/mL and the “Minimum inhibitory concentration (MIC)” value ([9]; C. parapsilosis ATCC 22010, RPMI 1640, 30 °C, 48 h, OD 630 nm, 80% inhibition) was greater than 128 µg/mL. For the same compound, the “Minimum inhibitory concentration (MIC)” value ([10]; C. tropicalis 895, fluconazole-resistant clinical isolate, RPMI 1640, 30 °C, 48 h, OD 630 nm, 80% inhibition) was greater than 128 µg/mL, the “Minimum inhibitory concentration (MIC)” value ([11]; C. tropicalis ATCC 20026, RPMI 1640, 30 °C, 48 h, OD 630 nm, 80% inhibition) was greater than 128 µg/mL and the helicity [12] was 56.6%. For the same compound, the “proteolytic stability, remaining peptide” value [13] was “disintegrated almost completely by 4.5 h”.
In the case of `CC[C@H](C)[C@@H]1NC(=O)[C@@](C)(NC(=O)[C@H](CC(=O)O)NC(=O)[C@H](Cc2ccccc2)NC(=O)[C@H](CC(C)C)NC(=O)CNC(C)=O)CCCC=CCCC[C@@](C)(C(=O)N[C@@H](C)C(=O)N[C@@H](CCC(=O)O)C(=O)N[C@@H](CO)C(=O)N[C@@H](Cc2ccccc2)C(N)=O)NC(=O)[C@H](CCCCN)NC(=O)[C@H](CCCCN)NC1=O` [Sau-5] (Ac-GLFD[S5]IKK[S5]AESF-NH2; staple 5-9), the “Minimum inhibitory concentration (MIC)” value ([1]; 901, 48 h) was greater than 128 µg/mL, the “Minimum inhibitory concentration (MIC)” value ([2]; 904, 48 h) was greater than 128 µg/mL and the “Minimum inhibitory concentration (MIC)” value ([3]; SC5314, 48 h) was 16 µg/mL (≈ 10.4 µM). The “Minimum inhibitory concentration (MIC)” value ([4]; 918, 48 h) was greater than 128 µg/mL, the “Minimum inhibitory concentration (MIC)” value ([5]; 919, 48 h) was greater than 128 µg/mL and the “Minimum inhibitory concentration (MIC)” value ([6]; 896, 48 h) was greater than 128 µg/mL. The “Minimum inhibitory concentration (MIC)” value ([7]; ATCC 1182, 48 h) was greater than 128 µg/mL, the “Minimum inhibitory concentration (MIC)” value ([8]; ATCC 2340, 48 h) was greater than 128 µg/mL and the “Minimum inhibitory concentration (MIC)” value ([9]; ATCC 22010, 48 h) was greater than 128 µg/mL. The “Minimum inhibitory concentration (MIC)” value ([10]; 895, 48 h) was 16 µg/mL (≈ 10.4 µM), the “Minimum inhibitory concentration (MIC)” value ([11]; ATCC 20026, 48 h) was greater than 128 µg/mL and the “proteolytic stability, remaining peptide” value [13] was “remain relatively stable over time”.
With `CC[C@H](C)[C@H](NC(=O)[C@H](CC(=O)O)NC(=O)[C@H](Cc1ccccc1)NC(=O)[C@H](CC(C)C)NC(=O)CNC(C)=O)C(=O)N[C@H](C(=O)N[C@@H](CCCCN)C(=O)N[C@@H](CCCCN)C(=O)N[C@@]1(C)CCCC=CCCC[C@@](C)(C(N)=O)NC(=O)[C@H](CO)NC(=O)[C@H](CCC(=O)O)NC(=O)[C@H](C)NC1=O)[C@@H](C)CC` [Sau-9] (Ac-GLFDIIKK[S5]AES[S5]-NH2; staple 9-13) the “Minimum inhibitory concentration (MIC)” value ([1]; 901, 48 h) was greater than 128 µg/mL, the “Minimum inhibitory concentration (MIC)” value ([2]; 904, 48 h) was greater than 128 µg/mL and the “Minimum inhibitory concentration (MIC)” value ([3]; SC5314, 48 h) was greater than 64 µg/mL. The “Minimum inhibitory concentration (MIC)” value ([4]; 918, 48 h) was greater than 128 µg/mL, the “Minimum inhibitory concentration (MIC)” value ([5]; 919, 48 h) was greater than 128 µg/mL and the “Minimum inhibitory concentration (MIC)” value ([6]; 896, 48 h) was greater than 128 µg/mL. The “Minimum inhibitory concentration (MIC)” value ([7]; ATCC 1182, 48 h) was greater than 128 µg/mL, the “Minimum inhibitory concentration (MIC)” value ([8]; ATCC 2340, 48 h) was greater than 128 µg/mL and the “Minimum inhibitory concentration (MIC)” value ([9]; ATCC 22010, 48 h) was greater than 128 µg/mL. The “Minimum inhibitory concentration (MIC)” value ([10]; 895, 48 h) was 32 µg/mL (≈ 21.2 µM) and the “Minimum inhibitory concentration (MIC)” value ([11]; ATCC 20026, 48 h) was greater than 128 µg/mL.
In the case of `CC[C@H](C)[C@@H]1NC(=O)[C@H]([C@@H](C)CC)NC(=O)[C@@](C)(NC(=O)[C@H](Cc2ccccc2)NC(=O)[C@H](CC(C)C)NC(=O)CNC(C)=O)CCCC=CCCC[C@@](C)(C(=O)N[C@H](C(=O)N[C@@H](C)C(=O)N[C@@H](CCC(=O)O)C(=O)N[C@@H](CO)C(=O)N[C@@H](Cc2ccccc2)C(N)=O)[C@@H](C)CC)NC(=O)[C@H](CCCCN)NC1=O` [Sau-4] (Ac-GLF[S5]IIK[S5]IAESF-NH2; staple 4-8), the “Minimum inhibitory concentration (MIC)” value ([1]; 901, 48 h) was greater than 128 µg/mL, the “Minimum inhibitory concentration (MIC)” value ([2]; 904, 48 h) was greater than 128 µg/mL and the “Minimum inhibitory concentration (MIC)” value ([3]; SC5314, 48 h) was greater than 64 µg/mL. The “Minimum inhibitory concentration (MIC)” value ([4]; 918, 48 h) was greater than 128 µg/mL, the “Minimum inhibitory concentration (MIC)” value ([5]; 919, 48 h) was greater than 128 µg/mL and the “Minimum inhibitory concentration (MIC)” value ([6]; 896, 48 h) was greater than 128 µg/mL. The “Minimum inhibitory concentration (MIC)” value ([7]; ATCC 1182, 48 h) was greater than 128 µg/mL, the “Minimum inhibitory concentration (MIC)” value ([8]; ATCC 2340, 48 h) was greater than 128 µg/mL and the “Minimum inhibitory concentration (MIC)” value ([9]; ATCC 22010, 48 h) was greater than 128 µg/mL. The “Minimum inhibitory concentration (MIC)” value ([10]; 895, 48 h) was greater than 128 µg/mL and the “Minimum inhibitory concentration (MIC)” value ([11]; ATCC 20026, 48 h) was greater than 128 µg/mL.
